Data published in patent US4024277A, “Phosphoro-aminosulfenyl derivatives of benzofuran carbamates” (priority 1975, dated 1977).

Experiments:
confused flour beetle [1] = experiment: Seven-day residual insecticidal activity, confused flour beetle; type: in vivo, Tribolium confusum Jacquelin duVal; details: Tribolium confusum, 48-hour exposure, read-out: % Kill, Confused Flour Beetle
Text: (§1) b. Seven-Day Residual Insecticidal Activity
(§2) In this test, a candidate insecticide, in solution, is applied to uninfested plants or containers by dipping or spraying. A seven-day holding period is necessary before infestation. A 48-hour exposure period is observed before evaluation of the tests. The insect species used in this type of test are the same as those listed under initial activity.

pea aphid [2] = experiment: Seven-day residual insecticidal activity, pea aphid; type: in vivo, Acyrthosiphon pisum (Harris); details: Acyrthosiphon pisum, 48-hour exposure, read-out: % Kill, Pea Aphid
Text: as §1, §2

twospotted spider mite [3] = experiment: Systemic insecticidal activity (soil/water), twospotted spider mite; type: in vivo, Tetranychus urticae Koch; details: Tetranychus urticae, 48-hour exposure, read-out: % Kill, Twospotted Spider Mite
Summary of the method: (§3)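 Compound solution applied to soil of uninfested pinto bean or broad bean seedlings, host chosen by insect species. Usually a 72-hour translocation period preceded infestation, then a 48-hour exposure before evaluation.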

[4] = system: female house flies (resistant); experiment: Level II topical test, house flies; type: in vivo, Musca domestica Linnaeus; details: HF (female, resistant), one microgram topically per insect
Experimental: (§4) e. Insecticidal Activity Against House Flies and German Cockroaches
In a Level II test the compounds of this invention were tested for insecticidal activity against female house flies (resistant) and male German cockroaches. Ten insects were anesthetized with carbon dioxide and placed in a container for about 2 hours, during which time the insects recovered to normal activity. The container confining the insects is fitted with a plunger which is used to force the insects against a nylon mesh at one end of the container. One microliter of an acetone solution containing one microgram of the candidate insecticide was applied topically to each insect. The plunger was withdrawn and the insects were allowed to move freely about the container. Knockdown counts were recorded 10 minutes after treatment of house flies and 30 minutes after treatment of cockroaches.

large milkweed bug = experiment: Seven-day residual insecticidal activity, milkweed bug; type: in vivo, Oncopeltus fasciatus (Dallas); details: Oncopeltus fasciatus, 48-hour exposure, read-out: % Kill, Milkweed Bug
Text: as §1, §2

twospotted spider mite [5] = experiment: Seven-day residual insecticidal activity, twospotted spider mite; type: in vivo, Tetranychus urticae Koch; details: Tetranychus urticae, 48-hour exposure, read-out: % Kill, Twospotted Spider Mite
Text: as §1, §2

pea aphid [6] = experiment: Systemic insecticidal activity (soil/water), pea aphid; type: in vivo, Acyrthosiphon pisum (Harris); details: Acyrthosiphon pisum, 48-hour exposure, read-out: % Kill, Pea Aphid
Summary of the method: as §3

twospotted spider mite [7] = experiment: Initial insecticidal activity, twospotted spider mite; type: in vivo, Tetranychus urticae Koch; details: Tetranychus urticae, 48-hour exposure, read-out: % Kill, Twospotted Spider Mite
Summary of the method: (§5)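 Candidate insecticide in solution sprayed or dipped onto plants or containers, infested before or after treatment depending on species. Read after 48-hour exposure. Solvent-only control included.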

German cockroaches = experiment: Level I immersion test, German cockroaches; type: in vivo, Blattella germanica (Linnaeus); details: GC (male), 5 mg/milliliter
Experimental: as §4
(§6) Compounds of this invention were tested in a Level I test at 5 mg. of active compounds/milliliter of a solution of 40% acetone -- 60% water.
(§7) In this test a group of ten house flies (Musca domestica Linnaeus) were completely immersed in 25 ml. of the insecticidal test solution. After 10 seconds of immersion, the test solution is removed. The house flies are then transferred to holding cages lines with paper toweling. In the case of the house flies, the knockdown counts were recorded 10 minutes after termination of the immersion. The percent kill was recorded after 18-24 hours.
The same Level I test technique was employed using male German cockroaches [Blattella germanica (Linnaeus)]. In this case, the knockdown counts were recorded 30 minutes after the termination of the immersion.

pea aphid [8] = experiment: Initial insecticidal activity, pea aphid; type: in vivo, Acyrthosiphon pisum (Harris); details: Acyrthosiphon pisum, 48-hour exposure, read-out: % Kill, Pea Aphid
Summary of the method: as §5

southern armyworm [9] = experiment: Seven-day residual insecticidal activity, southern armyworm; type: in vivo, Spodoptera eridania (Cramer); details: Spodoptera eridania, 48-hour exposure, read-out: % Kill, Southern Armyworm
Text: as §1, §2

house flies = experiment: Level I immersion test, house flies; type: in vivo, Musca domestica Linnaeus; details: HF, 5 mg/milliliter
Experimental: as §4, §6, §7

confused flour beetle [10] = experiment: Initial insecticidal activity, confused flour beetle; type: in vivo, Tribolium confusum Jacquelin duVal; details: Tribolium confusum, 48-hour exposure, read-out: % Kill, Confused Flour Beetle
Summary of the method: as §5

Mexican bean beetle [11] = experiment: Systemic insecticidal activity (soil/water), Mexican bean beetle; type: in vivo, Epilachna varivestis Mulsant; details: Epilachna varivestis, 48-hour exposure, read-out: % Kill, Mexican Bean Beetle
Summary of the method: as §3

Mexican bean beetle [12] = experiment: Initial insecticidal activity, Mexican bean beetle; type: in vivo, Epilachna varivestis Mulsant; details: Epilachna varivestis, 48-hour exposure, read-out: % Kill, Mexican Bean Beetle
Summary of the method: as §5

southern armyworm [13] = experiment: Systemic insecticidal activity (soil/water), southern armyworm; type: in vivo, Spodoptera eridania (Cramer); details: Spodoptera eridania, 48-hour exposure, read-out: % Kill, Southern Armyworm
Summary of the method: as §3

Mexican bean beetle [14] = experiment: Seven-day residual insecticidal activity, Mexican bean beetle; type: in vivo, Epilachna varivestis Mulsant; details: Epilachna varivestis, 48-hour exposure, read-out: % Kill, Mexican Bean Beetle
Text: as §1, §2

## CCCOP(=O)(OCCC)N(CCC)SN(C)C(=O)Oc1cccc2c1OC(C)(C)C2 [3(c)]
Confused flour beetle [1]; 39 ppm
  mortality at 39 ppm: 0%
Confused flour beetle [1]; 156 ppm
  mortality at 156 ppm: 0%
Confused flour beetle [1]; 1250 ppm
  mortality at 1250 ppm: 78%
Pea aphid [2]; 39 ppm
  mortality at 39 ppm: 0%
Pea aphid [2]; 156 ppm
  mortality at 156 ppm: 0%
Pea aphid [2]; 1250 ppm
  mortality at 1250 ppm: 73%
Twospotted spider mite [3]; 10 ppm
  mortality at 10 ppm: < 1%
Twospotted spider mite [3]; 39 ppm
  mortality at 39 ppm: < 1%
Twospotted spider mite [3]; 156 ppm
  mortality at 156 ppm: 5%
[4]; 10 minutes
  % Knockdown: 0%
[4]; Musca domestica, topical, read-out: % Kill
  mortality at 0.001 mg: 40%
Large milkweed bug; 39 ppm
  mortality at 39 ppm: 5%
Large milkweed bug; 156 ppm
  mortality at 156 ppm: 90%
Large milkweed bug; 1250 ppm
  mortality at 1250 ppm: 100%
Twospotted spider mite [5]; 39 ppm
  mortality at 39 ppm: < 1%
Twospotted spider mite [5]; 156 ppm
  mortality at 156 ppm: 0%
Twospotted spider mite [5]; 1250 ppm
  mortality at 1250 ppm: 5%
Pea aphid [6]; 10 ppm
  mortality at 10 ppm: 0%
Pea aphid [6]; 39 ppm
  mortality at 39 ppm: 0%
Pea aphid [6]; 156 ppm
  mortality at 156 ppm: 79%
Twospotted spider mite [7]; 39 ppm
  mortality at 39 ppm: 32%
Twospotted spider mite [7]; 156 ppm
  mortality at 156 ppm: 86%
Twospotted spider mite [7]; 1250 ppm
  mortality at 1250 ppm: 100%
German cockroaches; Blattella germanica, 18-24 hours, read-out: % Kill
  mortality at 5000 µg/mL: 100%
German cockroaches; 30 minutes after immersion
  % Knockdown: 100%
Pea aphid [8]; 39 ppm
  mortality at 39 ppm: 31%
Pea aphid [8]; 156 ppm
  mortality at 156 ppm: 100%
Pea aphid [8]; 1250 ppm
  mortality at 1250 ppm: 100%
Southern armyworm [9]; 39 ppm
  mortality at 39 ppm: 0%
Southern armyworm [9]; 156 ppm
  mortality at 156 ppm: 0%
Southern armyworm [9]; 1250 ppm
  mortality at 1250 ppm: 0%
House flies; 10 minutes after immersion
  % Knockdown: 100%
House flies; Musca domestica, after 18-24 hours, read-out: % Kill
  mortality at 5000 µg/mL: 100%
Confused flour beetle [10]; 39 ppm
  mortality at 39 ppm: 0%
Confused flour beetle [10]; 156 ppm
  mortality at 156 ppm: 2%
Confused flour beetle [10]; 1250 ppm
  mortality at 1250 ppm: 55%
Mexican bean beetle [11]; 10 ppm
  mortality at 10 ppm: 44%
Mexican bean beetle [11]; 39 ppm
  mortality at 39 ppm: 44%
Mexican bean beetle [11]; 156 ppm
  mortality at 156 ppm: 94%
Mexican bean beetle [12]; 39 ppm
  mortality at 39 ppm: 100%
Mexican bean beetle [12]; 156 ppm
  mortality at 156 ppm: 100%
Mexican bean beetle [12]; 1250 ppm
  mortality at 1250 ppm: 100%
Southern armyworm [13]; 10 ppm
  mortality at 10 ppm: 0%
Southern armyworm [13]; 39 ppm
  mortality at 39 ppm: 0%
Southern armyworm [13]; 156 ppm
  mortality at 156 ppm: 95%
Mexican bean beetle [14]; 39 ppm
  mortality at 39 ppm: 28%
Mexican bean beetle [14]; 156 ppm
  mortality at 156 ppm: 92%
Mexican bean beetle [14]; 1250 ppm
  mortality at 1250 ppm: 100%
